PMC11237035, “Glutathione determines chronic myeloid leukemia vulnerability to an inhibitor of CMPK and TMPK” (Communications Biology, 2024)
“And” between values parts separate entries of the source, which are not always exact repeats. Equal entries are not always repeated.

Columns and labels:
untransformed 32D cells [1] = test: CCK-8 cell viability assay, untransformed 32D cells; assay type: cell-based, mouse
Experimental: After 72 h, viability assays were performed.
3 independent experiments. Asterisks denote ***p<0.001 from non-paired two-tailed

T315I-Bcr-Abl-32D cells [2] = test: CCK-8 cell viability assay, T315I-Bcr-Abl-32D cells; assay type: cell-based, mouse
T315I-Bcr-Abl-32D cells [3] = test: GSH/GSSG-Glo measurement, T315I-Bcr-Abl-32D cells; assay type: cell-based, mouse
Excerpt: (§1) The GSH/GSSG-Glo™ Assay Kit (Promega, V6611) was used for luminescent-based measurement of cellular GSH and GSSG by Tecan Spark 10 microplate reader.

T315I-Bcr-Abl-32D cells [4] = test: DNA fiber assay (replication speed), T315I-Bcr-Abl-32D cells; assay type: cell-based, mouse; conditions: 16 h
Experimental: (§2) The workflow of DNA fiber labeling (Right). The representative labeled fibers are shown below. Replication speed in kb/min was calculated by the measured length of IdU (green) linking to CldU (red) in μm with a conversion factor of 0.34 μm/kb divided by the duration of the labeling pulse (Scale bar = 10 μm). The gray triangle indicates the boundary between red fluorescence and green fluorescence. c The measurement of intracellular ROS by the fluorescence intensity of CellROX Green staining using flow cytometric analysis. Data are presented as mean intensity relative to untransformed 32D cells. d, e The measurement of GSSG and GSH. […] Schematic illustration of the metabolic path U-^13C glutamine incorporation into the GSH (left). Gray and white circles indicate ^13C-label, and unlabeled ^12C, respectively. The traced isotopologue abundance of GSH is shown (right).
(§3) The DNA fiber assay was performed as described previously. Briefly, cells were sequentially treated with the medium containing 25 μM of CldU (Sigma-Aldrich, C6891) and then 250 μM of IdU (Sigma-Aldrich, I7125) for 20 min. After washing, cells were suspended in PBS (1000 cells/ μL). 2 μL of cell suspension was spotted on slides. […] The lengths of red- and green-labeled fibers were determined by FluoView3.0 software (Olympus).

WT-Bcr-Abl-32D cells [5] = test: CCK-8 cell viability assay, WT-Bcr-Abl-32D cells; assay type: cell-based, mouse; conditions: WT-Bcr-Abl, NAC with vehicle, single replicates
WT-Bcr-Abl-32D cells [6] = test: GSH/GSSG-Glo measurement, WT-Bcr-Abl-32D cells; assay type: cell-based, mouse
Excerpt: as §1

WT-Bcr-Abl-32D cells [7] = test: DNA fiber assay (replication speed), WT-Bcr-Abl-32D cells; assay type: cell-based, mouse; conditions: NAC 1 mM, 16 h
Experimental: as §2, §3

T315I-Bcr-Abl-32D cells [8] = test: dTTP/dCTP pools by RCA-qPCR in T315I-Bcr-Abl-32D cells; assay type: cell-based, mouse; conditions: T315I; replicates
Experimental: The methanol extracts were centrifuged
For chloroform extraction, same volume of
attomol of the annealed template-primer.
The RCA products were determined by
The thiophenol compound 3 was
(98.5%) after silica gel chromatography.

untransformed 32D cells [9] = test: GSH/GSSG-Glo measurement, untransformed 32D cells; assay type: cell-based, mouse; conditions: UK-5099 25 μM, 16 h
Excerpt: as §1

K562 cells = test: GSH/GSSG-Glo measurement, K562 cells; assay type: cell-based, human
Experimental: (§4) After 3 days, cells were analyzed by viability assays.
as §1

TCCS cells [10] = test: GSH/GSSG-Glo measurement, TCCS cells; assay type: cell-based, human; conditions: for GSH level: TCCS cells, 16 h
Experimental: as §4, §1

KOPM28 cells [11] = test: GSH/GSSG-Glo measurement, KOPM28 cells; assay type: cell-based, human; conditions: for GSH level: KOPM28 cells, 16 h
Experimental: as §4, §1

untransformed 32D cells [12] = test: DNA fiber assay (replication speed), untransformed 32D cells; assay type: cell-based, mouse; conditions: UK-5099 25 μM, 16 h
Experimental: as §2, §3

[13] = system: T315I-Bcr-Abl-32D cells in C3H/HeNCrNarl mice; conditions: T315I-Bcr-Abl-32D mice, UK-5099 10 mg/kg i.p. daily for 14 days alone, vs vehicle
Experimental: Asterisks denote *p < 0.05, **p < 0.01, ***p < 0.001, or ****p < 0.0001 from unpaired two-tailed Student’s t-test or Log-rank (Mantel–Cox) test.
T315I-Bcr-Abl-transformed and untransformed 32D cells were treated with UK-5099 (25 μM) for 16 h. […] Data are represented as means ± S.D., n > 3 biological replicates.
The animal studies were approved by the biosafety committee at National Taiwan University and conformed to the national guidelines and regulations (IACUC # 20201063). Female C3H/HeNCrNarl mice were used at 6–8 weeks of age (National Laboratory Animal Center, Taiwan).
Mouse CML induction and in vivo therapy
The animal studies were approved by the biosafety committee at National Taiwan
University and conformed to the national guidelines and regulations (IACUC #
20201063). Female C3H/HeNCrNarl mice were used at 6-8 weeks of age (National
Laboratory Animal Center, Taiwan).
suspended in 200 μL of HBSS were injected into each mouse through the tail vein.
suspended in 200 μL of HBSS were tail-vein-injected.
For monitoring CML progress, mice blood was
collected in anticoagulation tubes by submandibular blood collection, followed by
lysing red blood cells with RBC lysis buffer (Invitrogen). After washing, the remaining
cells were suspended in 500 μL of HBSS and subjected to flow cytometry analysis
(FACScalibur, BD Bioscience) with CellQuest software.

hTMPK = molecular target: T1, hTMPK (Homo sapiens, UniProt P23919); test: biochemical
T1 sequence (P23919 1-212): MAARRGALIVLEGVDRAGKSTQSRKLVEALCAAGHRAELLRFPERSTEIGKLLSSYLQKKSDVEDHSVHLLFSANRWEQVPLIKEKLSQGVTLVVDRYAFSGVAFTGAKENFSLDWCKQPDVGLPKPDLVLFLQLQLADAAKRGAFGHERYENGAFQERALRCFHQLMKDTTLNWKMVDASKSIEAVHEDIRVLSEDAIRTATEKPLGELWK
Experimental: (§6) Activity assay was measured using the spectrophotometric method by coupling ADP formation to NADH oxidation catalyzed by pyruvate kinase and lactate dehydrogenase as described previously[20]. Each reaction contained 0.4 μg TMPK or 0.3 μg CMPK was incubated at 25 °C followed by using Tecan Spark 10 microplate reader to detect the change in NADH measurement at 340 nm absorption according to the manufacturer’s instructions.

hCMPK = molecular target: T2, hCMPK (Homo sapiens, UniProt P30085); test: biochemical
T2 sequence (P30085 1-196): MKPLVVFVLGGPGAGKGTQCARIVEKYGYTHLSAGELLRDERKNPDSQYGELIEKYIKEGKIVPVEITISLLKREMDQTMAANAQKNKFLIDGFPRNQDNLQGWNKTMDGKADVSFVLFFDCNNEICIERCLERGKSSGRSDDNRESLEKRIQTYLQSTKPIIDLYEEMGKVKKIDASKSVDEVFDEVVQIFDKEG
Experimental: as §6

TCCS cells [14] = test: DNA fiber assay (replication speed), TCCS cells; assay type: cell-based, human; conditions: erastin 0.5 μM, 16 h
Experimental: as §4
(§5) The DNA fiber assay was performed as described previously. Briefly, cells were sequentially treated with the medium containing 25 μM of CldU (Sigma-Aldrich, C6891) and then 250 μM of IdU (Sigma-Aldrich, I7125) for 20 min. After washing, cells were suspended in PBS (1000 cells/ μL). 2 μL of cell suspension was spotted on slides. After 5 min, 10 μL spread solution (200 mM Tris-HCl, pH 7.5, 50 mM EDTA, and 0.5% SDS) was spotted on the cell droplet and spread on slides. The slides were then fixed with methanol/acetic acid (3:1), followed by denaturation with 2.5 M HCl. After blocking with 5% BSA in TBST, slides were stained with rat anti-BrdU antibody (which detects CldU but not IdU, OBT0030, 1:2000, AbDSerotec) and mouse anti-BrdU antibody (which detects IdU but not CldU, 7580, 1:1000, BD Biosciences) at 4 °C for overnight. The next day, slides were washed with TBST, followed by staining with the secondary antibodies of goat anti-rat IgG conjugated with TRITC (Jackson Lab) and goat anti-mouse IgG conjugated with FITC. Images of DNA fibers were acquired using a microscope (Olympus). The lengths of red- and green-labeled fibers were determined by FluoView3.0 software (Olympus).

KOPM28 cells [15] = test: DNA fiber assay (replication speed), KOPM28 cells; assay type: cell-based, human; conditions: erastin 0.5 μM, 16 h
Experimental: as §4, §5

## CCCCS(=N)(=O)CCC(N)C(=O)O (stereo not drawn) [BSO, buthionine sulphoximine]
Untransformed 32D cells [1]; 32D cells, BSO 12.5 μM alone (JMF4073 0), single replicates
  viability (vehicle, 0 = 100): 83.2384 and 115 and 94.5481
T315I-Bcr-Abl-32D cells [2]; T315I, BSO alone (JMF4073 0), single replicates
  cell viability (% of NT, 0 JMF4073), Figure 5e: 99.4456 and 92 and 86.6884
T315I-Bcr-Abl-32D cells [2]; T315I-Bcr-Abl cells, BSO treatment alone
  growth of cells, BSO alone: did not suppress the growth
T315I-Bcr-Abl-32D cells [3]; Figure 5c, T315I-Bcr-Abl, BSO vs NT = 100, single replicates
  GSH%: 10.69% and 9.7% and 22.3%
T315I-Bcr-Abl-32D cells [3]; T315I-Bcr-Abl-32D cells, BSO 12.5 μM, 16 h
  cellular level of GSH: reduced
T315I-Bcr-Abl-32D cells [4]; T315I-Bcr-Abl-32D cells, BSO 12.5 μM
  lengths of replication tracks: reduced

## CC(=O)N[C@@H](CS)C(=O)O [NAC, N-Acetyl-Cysteine]
WT-Bcr-Abl-32D cells [5]
  cell viability (% of NT vehicle), Figure 5h: 96.5592 and 69.512 and 104.601
WT-Bcr-Abl-32D cells [6]; Figure 5f, WT-Bcr-Abl, NAC vs NT = 100, single replicates
  GSH%: 161.382% and 219.818% and 187.248% and 315.164%
WT-Bcr-Abl-32D cells [6]; WT-Bcr-Abl-32D cells, NAC 1 mM, 16 h
  cellular GSH level: increased the cellular GSH level
WT-Bcr-Abl-32D cells [7]
  lengths of replication tracks: increased lengths of replication tracks

## N#C/C(=C\c1cn(-c2ccccc2)c2ccccc12)C(=O)O [UK-5099]
T315I-Bcr-Abl-32D cells [8]
  Figure 6d, dCTP relative to NT (=100): 73.8406 and 210.17 and 73.3898
  Figure 6d, dTTP relative to NT (=100): 74.5764 and 216.09 and 77.7298
Untransformed 32D cells [1]; 32D, UK-5099 alone (JMF4073 0), replicates
  Figure 6c, viability relative to NT (=100): 104.358 and 105.293 and 83.4613
T315I-Bcr-Abl-32D cells [2]; T315I-Bcr-Abl, UK-5099 alone (JMF4073 0), replicates
  Figure 6c, viability relative to NT (=100): 99.9363 and 88.5988 and 102.123
T315I-Bcr-Abl-32D cells [3]; T315I-Bcr-Abl cells, UK-5099 25 μM, 16 h
  GSH level: reduce GSH levels
Untransformed 32D cells [9]
  effect on GSH reduction, compared with T315I-Bcr-Abl cells: less
K562 cells; K562, UK-5099 treated, K562 vehicle = 100, per replicate
  GSH% relative to K562 (Figure 7e): 52.9657% and 35.7607% and 66.83%
K562 cells; K562 cells, UK-5099 50 μM, 16 h
  cellular level of GSH: bring down
TCCS cells [10]; UK-5099 50 μM
  GSH level: unchanged
TCCS cells [10]; TCCS, UK-5099 treated, K562 vehicle = 100, per replicate
  GSH% relative to K562 (Figure 7e): 96.7924% and 63.772% and 96.1621%
KOPM28 cells [11]; KOPM28, UK-5099 treated, K562 vehicle = 100, per replicate
  GSH% relative to K562 (Figure 7e): 180.441% and 154.066% and 117.536%
KOPM28 cells [11]; UK-5099 50 μM
  GSH level: unchanged
T315I-Bcr-Abl-32D cells [4]; T315I-Bcr-Abl cells, UK-5099 25 μM
  replication fork progression: slow replication fork progression
Untransformed 32D cells [12]
  effect on replication stress, compared with T315I-Bcr-Abl cells: less
[13]
  survival of leukemia mice: not affected

## CCOC(=O)N1CCN(C(=O)Cn2sc3nc(C)cc(C)c3c2=O)CC1 [YMU1]
hTMPK
  IC50: 0.72 µM
hCMPK
  IC50: 1.8 µM

## CCOc1ccccc1-n1c(C(C)N2CCN(C(=O)COc3ccc(Cl)cc3)CC2)nc2ccccc2c1=O (stereo not drawn) [erastin]
TCCS cells [10]; erastin 0.5 μM
  GSH level: drastically reduced
TCCS cells [10]; TCCS, Erastin treated, per replicate
  GSH% relative to K562 in 7e (Figure 7f): 12.1585% and 8.793% and 13.8%
KOPM28 cells [11]; KOPM28, Erastin treated, per replicate
  GSH% relative to K562 in 7e (Figure 7f): 6.981% and 5.472% and 15%
KOPM28 cells [11]; erastin 0.5 μM
  GSH level: drastically reduced
TCCS cells [14]
  replication stress (DNA fiber): induced replication stress
KOPM28 cells [15]
  replication stress (DNA fiber): induced replication stress
